# Reference: paper PMC7562955 (Nature Communications, 2020)
# What was measured:
# [1] = Solubility measurement in isotonic buffer; format: physicochemical; conditions: isotonic disodium hydrogen phosphate/citric acid buffer, 25 °C, aqueous buffer, kinetic from dmso stock; pH 7.4 buffer
# Experimental: Compound was dissolved in dimethyl sulfoxide at 10 mM. A 1.75% disodium hydrogen phosphate aqueous solution and a 5.53% citric acid aqueous solution were mixed while monitoring with a pH meter to prepare an isotonic buffer solution having a pH of 7.4. The dimethyl sulfoxide solution and the isotonic buffer solution of pH 7.4 was mixed and shaken at 110 rpm for 90 min at 25 °C by a constant temperature incubator shaker. After standing for 16–20 h, the mixture was centrifuged to precipitate insoluble matter, and the supernatant was collected. Separately, standard solutions of the compound were prepared by dissolving the compound in a mixture of acetonitrile and water (1:1). The analytical sample and the standard solutions were measured by UHPLC-UV (Waters, USA). The degree of solubility was calculated by comparing the peak area of the analytical sample with standard solutions.
# TLR7 = target: T1, TLR7 (Homo sapiens, UniProt Q9NYK1); assay: Human TLR7 reporter gene agonistic activity assay; format: cell-based; set-up: host or cells: HEK293 (TLR7/NF-κB/SEAPorter)
# T1 sequence (Q9NYK1 27-1049): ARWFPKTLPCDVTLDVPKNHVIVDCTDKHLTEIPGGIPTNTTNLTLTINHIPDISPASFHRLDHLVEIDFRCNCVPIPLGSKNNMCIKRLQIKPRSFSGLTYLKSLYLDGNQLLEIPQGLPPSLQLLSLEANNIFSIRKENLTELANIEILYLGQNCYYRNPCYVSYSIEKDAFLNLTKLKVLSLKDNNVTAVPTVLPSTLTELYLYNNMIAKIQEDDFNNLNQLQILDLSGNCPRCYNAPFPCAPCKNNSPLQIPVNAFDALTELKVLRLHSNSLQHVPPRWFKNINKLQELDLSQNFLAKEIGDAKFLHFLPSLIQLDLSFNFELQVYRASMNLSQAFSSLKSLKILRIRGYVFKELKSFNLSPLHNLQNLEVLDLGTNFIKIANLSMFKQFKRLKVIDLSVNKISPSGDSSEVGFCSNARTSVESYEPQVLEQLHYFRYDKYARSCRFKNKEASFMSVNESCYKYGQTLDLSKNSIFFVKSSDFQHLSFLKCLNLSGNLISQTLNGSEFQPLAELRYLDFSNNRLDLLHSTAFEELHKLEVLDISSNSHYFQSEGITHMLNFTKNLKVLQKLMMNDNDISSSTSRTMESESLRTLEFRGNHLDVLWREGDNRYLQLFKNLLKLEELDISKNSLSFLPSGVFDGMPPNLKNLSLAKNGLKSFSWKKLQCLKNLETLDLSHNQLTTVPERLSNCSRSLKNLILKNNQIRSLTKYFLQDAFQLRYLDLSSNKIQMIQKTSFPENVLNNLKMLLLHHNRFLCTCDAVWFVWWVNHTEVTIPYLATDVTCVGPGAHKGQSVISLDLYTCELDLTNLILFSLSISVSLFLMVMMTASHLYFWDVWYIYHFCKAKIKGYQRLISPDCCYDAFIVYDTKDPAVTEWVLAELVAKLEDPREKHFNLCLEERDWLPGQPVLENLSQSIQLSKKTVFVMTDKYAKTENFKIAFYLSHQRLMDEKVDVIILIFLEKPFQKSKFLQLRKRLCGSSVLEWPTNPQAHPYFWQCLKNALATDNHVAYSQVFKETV
# Experimental: Compounds were dissolved in dimethyl sulfoxide. Before stimulation with compound, Human TLR7 reporter cell line (Novus Biological) was seeded in 96-well microtiter plate (AGC techno glass) at 5 × 10^4 cells/well in DMEM (GIBCO) with 10% fetal bovine serum (GIBCO), and 10 ug/ml Blastcidin S HCl (GIBCO) and incubated at 37 °C in 5% CO2. The plates were incubated over-night and then stimulated with various concentrations of compound and R848. The plates were then incubated an additional 20 ± 1 h at 37 °C in 5% CO2 and then the secreted embryonic alkaline phosphatase (SEAP) activity was measured as activation of human TLR7. The SEAP activity was evaluated as follows: pNPP (Invitrogen, USA) was added to the incubated sample (50 μl/well); after 15 min, 4 M sodium hydroxide solution (nacalai tesque, Japan) was added thereto (50 μl/well) to quench the reaction; and the absorbance of each sample was measured at 405 nm with microplate reader SpectraMax M4 (Molecular Devices, USA).
Compound,solubility at 90 min [1],activation of TLR7 (TLR7),"activation of human TLR7, reporter signal (TLR7; compound 0.001 nM (as headed))","activation of human TLR7, reporter signal (TLR7; compound 0.003 nM (as headed))","activation of human TLR7, reporter signal (TLR7; compound 0.01 nM (as headed))","activation of human TLR7, reporter signal (TLR7; compound 0.03 nM (as headed))","activation of human TLR7, reporter signal (TLR7; compound 0.1 nM (as headed))","activation of human TLR7, reporter signal (TLR7; compound 0.3 nM (as headed))","activation of human TLR7, reporter signal (TLR7; compound 1 nM (as headed))","activation of human TLR7, reporter signal (TLR7; compound 3 nM (as headed))","activation of human TLR7, reporter signal (TLR7; compound 10 nM (as headed))","activation of human TLR7, reporter signal (TLR7; compound 30 nM (as headed))","activation of human TLR7, reporter signal (TLR7; compound 100 nM (as headed))"
CCCCOc1nc(N)c2nc(-c3cccnc3)n(Cc3ccccc3)c2n1 [Cpd-5],0.3 µg/mL,without causing any inhibition of either TLR8 or TLR9 and activation of TLR7,-0.0519,-0.05305,-0.08885,-0.06455,-0.0507,-0.02125,-0.05725,-0.0655,-0.0852,-0.0846,-0.0973
CCOc1nc(C)c2nc(-c3cncc(F)c3)n(Cc3ccc(CN4C[C@@H]5C[C@H]4CN5C)cc3)c2n1 [Cpd-7],> 150 µg/mL,–,-0.0428,-0.04595,-0.1002,-0.06165,-0.0434,-0.02775,-0.0578,-0.0693,-0.1036,-0.0961,-0.09835
CCOc1nc(N)c2nc(-c3cncc(F)c3)n(Cc3ccc(CN4C[C@@H]5C[C@H]4CN5C)cc3)c2n1 [Cpd-6],> 150 µg/mL,–,-0.07495,-0.076,-0.1139,-0.0956,-0.074,-0.01435,-0.0641,-0.07475,-0.1166,-0.1098,-0.12
